Patent US20230054887A1, “SWEETENING AND TASTE-MASKING COMPOSITIONS, PRODUCTS AND USES THEREOF” (HEALTHTECH BIO ACTIVES, S.L.U., priority 2017, published 2023)

What was measured:
Format in all cases: in vivo
[1] = Sugar (HFCS) substitution in orange soft drink, triangular test by calibrated panel; conditions: orange soft drink sweetened with HFCS
Description: A reference orange soft drink sweetened with high fructose corn syrup (HFCS) was prepared, using the ingredients listed in Table 9 (Formula 1). All the percentages in the table are by weight.
For preparing the beverages, the following process was followed. The high fructose corn syrup was weighed in a 1 L beaker. The remaining minor ingredients (sodium benzoate, potassium sorbate, citric acid, orange soda colour and orange soda flavour) were separately weighed in small beakers, and water was added to each of the small beakers and mixed until solubilizing each ingredient. Once dissolved, all those minor ingredients were added to the 1 L beaker with the HFCS. The obtained solution was thoroughly mixed and water was added gradually to 1 Kg.
For assaying the possible substitution of HFCS with NHDC and with the composition of the present invention (Example B), a 0.1% mother solution of NHDC in water was prepared by gradually adding 0.1 g of NHDC to 99.9 g of water, mixing, and heating to 66° C. during 15 minutes until a yellowish solution was obtained; the solution was then left to cool to room temperature. […]
Maximum sugar substitution with NHDC was then determined by replacing increasing amounts of HFCS by NHDC and then passing the reference and the prototype through a triangular test by a calibrated panel.

[2] = Sugar substitution in sweetened dark chocolate, calibrated panel
Description: The percentages in the table are expressed by weight.
The reference product (Formula 1 of Table 11) contained a commercial chocolate with 70% cacao content (Lindt®) and 6% of powdered sugar.
Along all the assays performed, the goal was to maximize the sucrose substitution while maintaining the same overall taste profile. A calibrated panel was not able to distinguish the reference from the different prototypes tested.
The method used for preparing the dark chocolate products of this assay was as follows. Firstly, 1% solution of NHDC in glycerol was prepared by gradually adding 1 g of NHDC to 99 g of glycerol, mixing and heating to 60° C. for 15 minutes, until a transparent solution is obtained. The solution was left to cool off to room temperature. The dark chocolate was weighed and heated to 45° C. and, when the chocolate was completely melted, powdered sugar was added and, optionally, also the 1% NHDC glycerol solution or the composition of Example B, and the mixture was then thoroughly mixed. The mixture was heated until reaching 45° C., then it was let to cool to 30° C., and then it was poured into molds (6 g/piece). The molds with the chocolate were put in the fridge for a quicker hardening.

[3] = Masking bitterness of paracetamol, calibrated test panel, equibitter solution; conditions: for Masking effect (real): 5000 ppm paracetamol
Description: The bitter masking effect against paracetamol was assayed. The anti-bittering effect was measured as a dose-response profile vs. a solution of paracetamol.
The following substances were assayed: NHDC alone, gamma-cyclodextrin alone and compositions comprising NHDC and gamma-cyclodextrin in a molar ratio 1:3 (Example B), 1.5:1 (Example C), 1:6 (Example D) and 1:10 (Example E).
For evaluating the masking effect of each substance, several aqueous solutions were prepared, each containing 5000 ppm of paracetamol and different concentrations of the tested substance, namely, 5, 25, 50, 75 and 100 ppm.
A calibrated test panel compared each solution with several solutions of paracetamol in water at different concentrations, and determined the equibitter paracetamol solution. The equibitter solution was calculated as the average of all the evaluations of the panel.
The masking effect was then calculated from the reference amount of paracetamol contained in each tested solution (5000 ppm) and the amount of paracetamol in the equibitter solution, using the following formula (Formula III): […]
For calculating the masking synergies between gamma-cyclodextrin and NHDC, first, for each amount of the combination (Examples A-E), using the molecular weight of each component, the amounts of gamma-cyclodextrin and NHDC contained therein were calculated. For example, 100 ppm of Example B contain 13.61 ppm of NHDC and 86.39 ppm of gamma-cyclodextrin. Then, the antibittering contribution of each component in the composition was calculated, on the basis of the data of Table 13. For example, 13.61 ppm of NHDC provide 9.44% masking effect and 86.39 ppm of gamma-cyclodextrin provide 5.46% masking effect (the antibittering effects for each specific concentration was calculated by interpolation of the data points in Table 13). Therefore, the expected masking effect is calculated as the sum of the contributions of each component. For example, the expected masking effect of 100 ppm of Example B is 14.90 (i.e., 9.44 plus 5.46).
Finally, the masking synergy is calculated using Formula IV: […]
The masking effect of Examples C (NHDC:gCD 1.5:1), D (NHDC:gCD 1:6) and E (NHDC:gCD 1:10) was also evaluated. Aqueous solutions were prepared, each one of them containing 5000 ppm of paracetamol and different concentrations of each one of the tested formulations Ex. C-E, namely, 25 and 50 ppm. Results are disclosed in Tables 15 to 17.

[4] = Masking bitterness of quinine, test panel, equibitter solution; conditions: 250 ppm quinine
Description: The bitter masking effect against quinine was assayed, following an analogous procedure to the one used in Example 10 for paracetamol.
The following substances were assayed: NHDC alone, beta-cyclodextrin alone, a composition comprising NHDC and beta-cyclodextrin in a molar ratio 1:1 (Example F) and a composition comprising NHDC and beta-cyclodextrin in a molar ratio 1:3 (Example G).
Analogously to Example 10, several aqueous solutions were prepared, each containing 250 ppm of quinine and different concentrations of the tested substance, namely, 5, 25, 50, 75 and 100 ppm. For each tested solution, a test panel determined the equibitter quinine solution, and the masking effect was calculated using a formula analogous to formula III (substituting 5000 with […]).
The masking synergies between beta-cyclodextrin and NHDC in Examples F and G were calculated following an analogous procedure to the one disclosed in Example 10. Therefore, using the molecular weight of each component, the amounts of beta-cyclodextrin and NHDC contained in each amount of the combinations of Examples F and G were calculated and, then, the antibittering contribution of each component was calculated on the basis of the data of Table 19. The expected masking effect was calculated as the sum of the contributions of each component, and, finally, the masking synergy was calculated (using Formula IV).

Compound: COc1ccc(CCC(=O)c2c(O)cc(O[C@@H]3O[C@H](CO)[C@@H](O)[C@H](O)[C@H]3O[C@@H]3O[C@@H](C)[C@H](O)[C@@H](O)[C@H]3O)cc2O)cc1O [NHDC, 1-[4-[[2-O-(6-Deoxy-α-L-mannopyranosyl)-β-D-glucopyranosyl]oxy]-2,6-dihydroxyphenyl]-3-(3-hydroxy-4-methoxyphenyl)propan-1-one]
- Amount needed to obtain 10% sugar substitution [1]: 10 ppm
- Maximum sugar substitution without any noticeable difference in a triangular test [1]: 10%
- Amount used for the maximum sugar substitution [2]: 3 ppm
- Maximum sugar substitution without changing the taste profile ([2]; reference with 6% powdered sugar): 10%
- Equibitter paracetamol solution ([3]; 5000 ppm paracetamol + 100 ppm tested substance): 3266.7 ppm
- Masking effect (real) ([3]; tested substance 5 ppm): 6.00%
- Masking effect (real) ([3]; tested substance 25 ppm): 14.00%
- Masking effect (real) ([3]; tested substance 50 ppm): 15.33%
- Masking effect (real) ([3]; tested substance 75 ppm): 27.00%
- Masking effect (real) ([3]; tested substance 100 ppm): 34.67%
- Masking effect (real) ([4]; tested substance 5 ppm): 5.00%
- Masking effect (real) ([4]; tested substance 25 ppm): 13.33%
- Masking effect (real) ([4]; tested substance 50 ppm): 30.00%
- Masking effect (real) ([4]; tested substance 75 ppm): 48.33%
- Masking effect (real) ([4]; tested substance 100 ppm): 50.00%
